pEC50: −log10 of the molar value. Active and inactive are the calls of the source. No cut-off for these calls is given here.

Data set [1] relates to MDCK. Description: Cytotoxicity against MDCK cells at 5 uM after 18 hrs. The data set is classed as cell-based, Canis lupus familiaris. Conditions: dog.
Data set [2] deals with Influenza A virus. Kind of data set: Antiviral activity against Influenza A virus A2/Taiwan/1/64(H2N2) infected in MDCK cells expressing wild type M2 after overnight incubation by fluorescence-based miniplaque assay. The data set is classed as functional, organism-based.
Data set [3] concerns Influenza A virus. Kind of data set: Antiviral activity against Influenza A virus A/Victoria/3/75(H3N2) infected in MDCK cells expressing wild type M2 after overnight incubation by fluorescence-based miniplaque assay. The data set is classed as functional, organism-based.
The subject of data set [4] is MDCK. Description: Cytotoxicity against MDCK cells at 50 uM after 18 hrs. The data set is classed as cell-based, Canis lupus familiaris. The conditions noted are these: dog.
The next data set deals with HEK293. It counts as cell-based. The conditions noted are these: Influenza A virus (A/California/07/2009(H1N1)), 10 uM.
Another data set concerns Influenza B virus. Description: Antiviral activity against Influenza B virus B/Russia/69 infected in MDCK cells at 50 uM. It counts as functional, organism-based.
The next data set has as its system Bovine parvovirus. Description: Antiviral activity against Bovine parvovirus infected in bovine embryonic cells at 50 uM. It counts as functional, cell-based.

As usually defined, the pEC50 is the negative decadic logarithm of the EC50, by convention in mol/L. Read a high pEC50 as a low EC50. For `CCCCCCC1(N)C2CC3CC(C2)CC1C3` (centres undefined), the Activity entry in the data set on MDCK [1] is “Non-toxic”. Further, the negative-log EC50 (pEC50) was 5.82 in the data set with Influenza A virus [2] and 5.96 in the data set on Influenza A virus [3].
Consider `NC1(c2ccccc2)C2CC3CC(C2)CC1C3` (centres undefined), for which the Activity result in the data set with MDCK [4] is recorded as “Non-toxic”. For the same compound, the figures for the pEC50 with Influenza A virus [2] and in the data set with Influenza A virus [3] were 6.70 and 5.10, respectively.
In the case of `CCCC1(N)C2CC3CC(C2)CC1C3` (centres undefined), the Activity in the data set on HEK293 was 63%; in the data set with MDCK [4], “Non-toxic”. Also, the result in the data set on Influenza B virus and with Bovine parvovirus was inactive. The pEC50 was above 6.62 with Influenza A virus [2] and 4.64 with Influenza A virus [3].
Take `NC12CC3CC(CC(C3)C1)C2` [AMANTADINE]: in the data set on MDCK [4], the Activity entry was “Non-toxic”. In addition, the pEC50 with Influenza A virus [2] was 6.47; with Influenza A virus [3] it was 5.56.
Taken in the same sequence, the figures for `NC1(Cc2ccccc2)C2CC3CC(C2)CC1C3` (centres undefined) were “Non-toxic”, 6.70 and 4.74.
Turning to `CC(C)CC1(N)C2CC3CC(C2)CC1C3` (centres undefined), in the data set on MDCK [4], the Activity entry is “Non-toxic”. In addition, the pEC50 is 6.40 in the data set on Influenza A virus [2] and 4.89 in the data set on Influenza A virus [3].
For the compound `CC1(N)C2CC3CC(C2)CC1C3` (centres undefined), the result with Influenza B virus was inactive. Further, the Activity entry in the data set on MDCK [4] is “Non-toxic”. In addition, the pEC50 was 6.30 in the data set with Influenza A virus [2] and 5.70 in the data set on Influenza A virus [3].
Taken in the same sequence, the figures for `NC1C2CC3CC(C2)CC1C3` (centres undefined) were “inactive”, “Non-toxic”, 6.10 and 5.48.
Taken in the same sequence, the figures for `CCC1(N)C2CC3CC(C2)CC1C3` (centres undefined) were “inactive”, “Non-toxic”, 6.10 and 5.70.
Take `CCCCC1(N)C2CC3CC(C2)CC1C3` (centres undefined): the Activity result with MDCK [4] was “Non-toxic”. In addition, the pEC50 was 5.82 in the data set with Influenza A virus [2] and 5.40 in the data set with Influenza A virus [3].
`CC(N)C12CC3CC(CC(C3)C1)C2` (centres undefined) [RIMANTADINE]: the Activity result in the data set on MDCK [4] is on record as “Non-toxic”. Also, the pEC50 in the data set with Influenza A virus [2] is 5.80; in the data set with Influenza A virus [3] it was 6.28.

The record behind these values is ChEMBL document CHEMBL3286127, “Aminoadamantanes with persistent in vitro efficacy against H1N1 (2009) influenza A” (J Med Chem, 2014).
